Several values for one entry are separate records, joined by “and”; a condition that tells them apart may be missing. Equal values may be shown once.
Columns and labels:
[1] = system: HCFs; test: RT-qPCR on signaling pathway genes in HCFs; type: cell-based, human; conditions: single replicates
Protocol: RNA was extracted using Nucleospin RNA XS (Macherey-Nagel, 740902.50) according to the manufacturer’s instructions. For cDNA synthesis, total RNA was added to a mixture containing buffer with random hexamers and reverse transcriptase enzyme (TaqMan reverse transcription reagents, Applied biosystems, N8080234) after which samples were incubated for 10 min at 25 °C, 30 min at 48 °C, and 5 min at 95 °C. RT-qPCR was performed on QuantStudio 3 Real-time PCR system (Applied Biosystems) using Taqman Universal PCR Master Mix (Applied Biosystems, 4304437) and Taqman primers according to the manufacturer’s instructions. Settings were as follows: […] followed by 10 min at 95 °C, 40 cycles (45 cycles for ERBB4) of denaturation at 95 °C for 15 s, and 1 min at 60 °C. All reactions were run in duplicate, and all data were normalized against housekeeping genes glyceraldehyde-3-phosphate dehydrogenase (GAPDH), beta-actin (ACTB), or phosphoglycerate kinase 1 (PGK1). Expression levels were calculated using the comparative cycle method and expressed as fold change (FC) to appropriate controls. The following TaqMan primers were used (Thermo Fisher Scientific): GAPDH (Hs02758991_g1, Mm99999915_g1 and Rn01775763_g1), PGK1 (Hs99999906_m1), ID2 (Hs04187239_m1), BMPR1B (Hs01010965_m1), CACNA2D4 (Hs00297782_m1), DUSP2 (Hs00358879_m1), NR4A1 (Hs00374226_m1), SGK1 (Hs00178612_m1), COL1A1 (Mm00801666_g1), COL3A1 (Hs00943809_m1 and Mm00802305_g1), ERBB4 (Hs00955525_m1 and Rn00572447_m1), ACTB (Mm02619580_g1) and ANP (Mm01255747_g1).

[2] = system: iAMs; test: H2O2-induced cell death assay in iAMs (Toxilight), also with LY294002; conditions: for total cell death of iAMs (percentage of total dead cells): 4 h; for total cell death of iAMs (percentage of total dead cells) / total cell death of iAMs: single replicates
Protocol: Subsequently, H2O2 (100 µM; Merck, H1009) was added and the cells were incubated for 4 h at 37 °C. All wells contained DMSO at a final concentration of 0.9%. […] After incubation at RT for 5 min, luminescence was measured using the Luminoskan Ascent.

[3] = system: mouse model of AngII-induced myocardial fibrosis; test: AngII-induced myocardial fibrosis mouse model, 4 weeks, echocardiography, wild-type mice; type: in vivo
Protocol: Four weeks after implantation, cardiac ultrasound was performed, mice were euthanized, and hearts were collected. A similar set-up was used for the 1-week study (Alzet, model 1007D) in male mice (n = 9-10 mice in every group).
Echocardiography was performed using the Vevo F2-LAZRX (FUJIFILM VisualSonics) and UHF57x probe. Mice were anesthetized with 1.5% isoflurane (Alvira, BE-V512222). Parasternal long-axis B-mode images and M-mode images were obtained and analyzed using VevoLAB software (FUJIFILM VisualSonics, Version 5.7.1). For the AngII experiments, measurements were obtained through analysis of the short-axis M-mode. For the MI experiments, measurements were obtained through analysis of the parasternal long-axis B-mode, of which the area and end-volume of the left ventricular cavity in diastole and systole were determined by tracing the endocardial border. Acquisitions, measurements and analyses were performed blinded.
Supplementary Table 2. Echocardiographic parameters. Echocardiographic parameters obtained through the analysis of the M-mode short-axis views. (a) Male and (b) female wild-type mice treated […]
mice in EF-1 group). (c) Male wild-type mice treated with AngII and NA-1 (n=5 male mice in Ctrl and AngII/Veh group, n=4 male mice in AngII/NA -1 group). (d) Comparison between wild-type and Erbb4-null mice (n=10 male and female wild -type mice and n=6 male and female Erbb4-null mice). (e) Male […]
Echocardiographic parameters obtained through left ventricular trace analysis of the parasternal long-axis obtained in B-mode in female wild-type mice that underwent a sham or MI operation: mice with […]
in MI/EF-1 group). (g) Echocardiographic parameters obtained through left ventricular trace analysis of the parasternal long-axis obtained in B-mode in male wild-type mice that underwent a sham or MI […]
male mice in MI/Veh group for T2 and T4). Echocardiographic parameters were measured weekly (indicated by ‘T’). All data are presented as mean (value of individual mice) ± SD, two-tailed unpaired […]
1 groups. Source data are provided as a Source Data file. AngII, angiotensin II; ANOVA, analysis of variance; Ctrl, control; DOX, doxorubicin; EF, ejection fraction; ERBB4, erythroblastic leukemia viral oncogene homolog 4; FS, fractional shortening; IVSd, interventricular septum thickness in diastole; IVSs, interventricular septum thickness in systole; LVIDd, left ventricular internal diameter in diastole; LVIDs, left ventricular internal diameter in systole; LVPWd, left ventricular posterior wall thickness in diastole; LVPWs, left ventricular posterior wall thickness in systole; MI, myocardial infarction; NA, non-activating pharmacophore-containing compound; SD, standard variation; Veh, vehicle.

[4] = Female wild-type mice, AngII/EF-1
[5] = Male wild-type mice, AngII/EF-1
[6] = Male wild-type mice, EF-1 without AngII
[7] = female wild-type mice, AngII/EF-1, 4 weeks, mean ± SD
[8] = male wild-type mice, AngII + compound 2 mg/kg/day, 4 weeks, mean ± SD
[9] = male wild-type mice, EF-1 group without AngII, 4 weeks, mean ± SD
[10] = Male wild-type mice, AngII/NA-1

## O=C(NC1CC1)C(Sc1nc2ccccc2c(=O)n1C1CCCC1)c1ccccc1 (stereo not shown) [EF-1]
[1]
  BMPR1B mRNA, normalized FC compared to vehicle: 0.7674 and 0.7715 and 0.7478 and 0.6131
  CACNA2D4 mRNA, normalized FC compared to vehicle: 0.6726 and 0.5139 and 0.5641 and 0.6199
  DUSP2 mRNA, normalized FC compared to vehicle: 0.652 and 0.6672 and 0.8266 and 0.7945
  ID2 mRNA, normalized FC compared to vehicle: 0.7995 and 0.6935 and 0.711 and 0.7833
  NR4A1 mRNA, normalized FC compared to vehicle: 0.6281 and 0.8412 and 0.7864 and 0.7806
  SGK1 mRNA, normalized FC compared to vehicle: 0.5165 and 0.6795 and 0.6992 and 0.5618
[2]; EF-1 + SiERBB4, 1e-6 M, H2O2 100 µM
  total cell death of iAMs (percentage of total dead cells): 68.0221 and 60.0225 and 62.2886
[2]; EF-1 + SiERBB4, 4e-6 M, H2O2 100 µM
  total cell death of iAMs (percentage of total dead cells): 72.51 and 56.29 and 70.83
[2]; EF-1 + SiERBB4, 8e-6 M, H2O2 100 µM
  total cell death of iAMs (percentage of total dead cells): 69.73 and 50.25 and 72.39
[2]; EF-1 + SiERBB4, 1.6e-5 M, H2O2 100 µM
  total cell death of iAMs (percentage of total dead cells): 67.67 and 53.83 and 80.13
[2]; EF-1 + SiERBB4, 3.2e-5 M, H2O2 100 µM
  total cell death of iAMs (percentage of total dead cells): 64.65 and 55.01 and 72.56
[2]; EF-1 + SiScr, 1e-6 M, H2O2 100 µM
  total cell death of iAMs (percentage of total dead cells): 62.2886 and 68.0221 and 60.0225
[2]; EF-1 + SiScr, 4e-6 M, H2O2 100 µM
  total cell death of iAMs (percentage of total dead cells): 34.38 and 49.85 and 69.84
[2]; EF-1 + SiScr, 8e-6 M, H2O2 100 µM
  total cell death of iAMs (percentage of total dead cells): 29.53 and 51.53 and 63.09
[2]; EF-1 + SiScr, 1.6e-5 M, H2O2 100 µM
  total cell death of iAMs (percentage of total dead cells): 23.16 and 29.77 and 55.38
[2]; EF-1 + SiScr, 3.2e-5 M, H2O2 100 µM
  total cell death of iAMs (percentage of total dead cells): 15.16 and 25.21 and 30.15
[2]; H2O2/EF-1 (32 µM) + LY294002 (20 µM, 10 min pretreatment)
  total cell death of iAMs: 37.778 and 30.0948 and 30.3358 and 33.2686
[2]; H2O2/EF-1 (32 µM), without LY294002
  total cell death of iAMs: 27.2571 and 19.0561 and 18.1394 and 25.7513
[2]; at its highest dose
  decrease of H2O2-induced cardiomyocyte cell death: more than 75%
[3]; AngII model, both sexes
  effect on cardiac dimensions on ultrasound (in words): did not significantly alter cardiac dimensions
[3]; [4]
  FS: 11.5 ± 5.5%
  IVSd: 0.53 ± 0.07 mm
  IVSs: 0.7 ± 0.1 mm
  LVIDd: 4.2 ± 0.3 mm
  LVIDs: 3.7 ± 0.4 mm
  LVPWd: 0.5 ± 0.1 mm
  LVPWs: 0.6 ± 0.1 mm
[3]; [5]
  FS: 16.6 ± 3.6%
  IVSd: 0.8 ± 0.1 mm
  IVSs: 1.1 ± 0.2 mm
  LVIDd: 4.4 ± 0.3 mm
  LVIDs: 3.7 ± 0.4 mm
  LVPWd: 0.8 ± 0.2 mm
  LVPWs: 0.9 ± 0.2 mm
[3]; [6]
  FS: 18.5 ± 5.1%
  IVSd: 0.9 ± 0.1 mm
  IVSs: 1.2 ± 0.1 mm
  LVIDd: 4.2 ± 0.3 mm
  LVIDs: 3.4 ± 0.3 mm
  LVPWd: 0.75 ± 0.03 mm
  LVPWs: 0.9 ± 0.1 mm
[3]; [7]
  FS: 11.5 ± 5.5%
  IVSd: 0.53 ± 0.07 mm
  IVSs: 0.7 ± 0.1 mm
  LVIDd: 4.2 ± 0.3 mm
  LVIDs: 3.7 ± 0.4 mm
  LVPWd: 0.5 ± 0.1 mm
  LVPWs: 0.6 ± 0.1 mm
[3]; [8]
  FS: 16.6 ± 3.6%
  IVSd: 0.8 ± 0.1 mm
  IVSs: 1.1 ± 0.2 mm
  LVIDd: 4.4 ± 0.3 mm
  LVIDs: 3.7 ± 0.4 mm
  LVPWd: 0.8 ± 0.2 mm
  LVPWs: 0.9 ± 0.2 mm
[3]; [9]
  FS: 18.5 ± 5.1%
  IVSd: 0.9 ± 0.1 mm
  IVSs: 1.2 ± 0.1 mm
  LVIDd: 4.2 ± 0.3 mm
  LVIDs: 3.4 ± 0.3 mm
  LVPWd: 0.75 ± 0.03 mm
  LVPWs: 0.9 ± 0.1 mm

## Cc1sc2nc(SC(C)C(=O)NCc3ccc4c(c3)OCO4)n(-c3ccccc3)c(=O)c2c1C (stereo not shown) [NA-1]
[2]; H2O2 100 µM
  effect on cardiomyocyte survival (in words): did not have a significant effect on cardiomyocyte survival
[2]; NA-1, 1e-6 M, H2O2 100 µM
  total cell death of iAMs (percentage of total dead cells): 60.0225 and 62.2886 and 68.0221
[2]; NA-1, 4e-6 M, H2O2 100 µM
  total cell death of iAMs (percentage of total dead cells): 64.78 and 60.57 and 53.32 and 58.95
[2]; NA-1, 8e-6 M, H2O2 100 µM
  total cell death of iAMs (percentage of total dead cells): 63.16 and 63.84 and 49.27 and 56.61
[2]; NA-1, 1.6e-5 M, H2O2 100 µM
  total cell death of iAMs (percentage of total dead cells): 61.57 and 64.49 and 50.09 and 59.17
[2]; NA-1, 3.2e-5 M, H2O2 100 µM
  total cell death of iAMs (percentage of total dead cells): 63.24 and 58.6 and 49.06 and 56.03
[3]; [10]
  FS: 18.1 ± 5.1%
  IVSd: 1.0 ± 0.2 mm
  IVSs: 1.4 ± 0.2 mm
  LVIDd: 4.3 ± 0.7 mm
  LVIDs: 3.5 ± 0.7 mm
  LVPWd: 0.9 ± 0.1 mm
  LVPWs: 1.1 ± 0.3 mm
[3]; [8]
  FS: 18.1 ± 5.1%
  IVSd: 1.0 ± 0.2 mm
  IVSs: 1.4 ± 0.2 mm
  LVIDd: 4.3 ± 0.7 mm
  LVIDs: 3.5 ± 0.7 mm
  LVPWd: 0.9 ± 0.1 mm
  LVPWs: 1.1 ± 0.3 mm

## neuregulin-1 [NRG1]
[1]
  BMPR1B mRNA, normalized FC compared to vehicle: 0.8467 and 0.8788 and 0.6722 and 0.547
  CACNA2D4 mRNA, normalized FC compared to vehicle: 0.587 and 0.7244 and 0.5309 and 0.2575
  DUSP2 mRNA, normalized FC compared to vehicle: 0.9928 and 0.6481 and 0.6778 and 0.7386
  ID2 mRNA, normalized FC compared to vehicle: 0.8573 and 0.8679 and 0.8306 and 0.7992
  NR4A1 mRNA, normalized FC compared to vehicle: 0.5297 and 0.9275 and 0.7063 and 0.8111
  SGK1 mRNA, normalized FC compared to vehicle: 0.7797 and 0.9219 and 0.8239 and 0.6521
